From patent US20190055517A1, “Cell Line of M2c Macrophage and Its Applications” (National Pingtung University of Science and Technology, priority 2017, published 2019)

What was measured:
murine M2 macrophage [1] = test: Macrophage phenotype by flow cytometry (CD86, CD206) after drug-induced differentiation; type: cell-based; conditions: conditions of chart 2, p<0.05, FIG. 3
Description: Use PBS containing 0.5% BSA to flush out bone marrow cells from murine (C57BL/6J, 8-20 weeks, Taiwan National Laboratory Animal Center) femur, then use Ficoll-Hypaque (GE healthcare, SWEDEN) to isolate monocytes.
Then, incubate 2×10^6 monocytes in 50 ng/ml M-CSF contained RPMI 1640 (10% FCS) medium under 37° c., 5% CO2 for seven days to induce M2 macrophage polarization. On the eighth day, collect 2×10^5 M2 macrophage and incubate them in RPMI 1640 (10% FCS) medium with Baicalin (50 μM, Tokyo Chemical Industry, JAPAN) for 24 hours. Baicalin will induce M2 macrophage to differentiate into M2C macrophage.
(§1) Embodiment 1 is prepared by the steps described above, isolate monocytes from murine bone marrow and use M-CSF to induce differentiation of M2 macrophage, and then use baicalin to induce M2C macrophage polarization. In comparison 1, incubate murine M2 macrophage in RPMI 1640 (10% FCS) containing LPS (lipopolysaccharide, 1 μg/ml, Sigma-Aldrich) for 2 hours. In comparison 2, incubate murine M2 macrophage in medium containing IL-4 ([…] Guidance System, Cambridge, UK) for 24 hours. The control group of M2 macrophage is incubated in RPMI 1640 (10% FCS) without any drugs. The conditions are shown below in chart 2.
After induced differentiation is complete, use flow cytometry to analyse the macrophage phenotype, in the meantime, also use real time PCR (qPCR) to observe mRNA expression level of each gene.
(§2) FIG. 2˜4 show results of macrophage phenotypes analysed by flow cytometry.

murine M2 macrophage [2] = test: Macrophage cell morphology under microscope; type: cell-based; conditions: versus M-CSF control and comparison 2, FIG. 4
Description: as §1, §2

[3] = test system: M1 and M2 macrophage derived from Raw264.7 cell line; test: mRNA expression of VEGF family, VEGF receptor and PD-L1 by RT-qPCR in Raw264.7 derived macrophages; type: cell-based, murine
Description: In this example, experiment was performed to observe if baicalin can induce expression of VEGF family and PD-L1 in M1 and M2 macrophage derived from Raw264.7 cell line (ATCC, USA). M1 macrophage obtained from treating Raw264.7 macrophage with LPS (1 μg/ml, Sigma-Aldrich) for 2 hours, and M0 macrophage (control group) cultured in simple RPMI 1640 (10% FCS) medium, are respectively cultured in RPMI 1640 (10% FCS) medium with either Baicalin (50 μM, Tokyo Chemical Industry, Japan) or […] (10 ng/ml, Cell Guidance System, Cambridge, UK). Collect the cells after 24/48/72 hours of cell culturing. Then observe the mRNA expression level of VEGF family, VEGF receptor and PD-L1 using reverse transcription-real time PCR (RT-qPCR).

murine M2 macrophage [4] = test: Macrophage surface protein MERTK expression by flow cytometry; type: cell-based; conditions: versus control, LPS and IL-4 groups, p<0.05, FIG. 15
Description: as §1
In this example, experiment was performed to further test whether M2C treated by baicalin can express MERTK protein. Using flow cytometry to evaluate macrophage surface protein MERTK expression level in embodiment 1, comparison 1, 2, and the control group is cultured in RPMI 1640 (10% FCS) without any drugs. Result was shown in FIG. 14, after fluorescence staining, fluorescence MERTK marker binding was detected in approximately 80% of cells in every group. […] M2C cells treated with baicalin can promote macrophages to express MERTK protein, and the efficacy is greater than LPS and IL-4.

murine M2 macrophage [5] = test: Phagocytosis of FITC-Latex beads with PE-anti-MERTK staining (flow cytometry, fluorescence microscopy); type: cell-based
Description: In this example, experiment was performed to evaluate the effect of baicalin induced differentiated […] macrophages in promoting phagocytosis. Treatment conditions of drugs in each group is listed in chart 2, and control group is cultured in RPMI1640 (10% FCS) without any drugs. After treatment, collect 5×10^5 treated cells respectively and add 50 μl FITC-Latex beads (Phagocytosis assay kit (IgG FITC), Cayman Chemical, USA.) to perform phagocytosis experiment for 24 hours, and then use PE-anti-MERTK antibody to mark the cells and observe the fluorescence expression with flow cytometry.

[6] = test system: M2 cell line from murine bone marrow; test: Efferocytosis of CFSE-marked apoptotic cells by macrophages (flow cytometry PE-MERTK / CFSE); type: cell-based; conditions: apoptotic cells : M2 3:2, 2 hours, p<0.05, FIG. 21
Description: Efficacy evaluation of apoptotic cells efferocytosis in macrophages: method of the evaluation for effectiveness of apoptotic cells efferocytosis in M2 macrophage induced differentiated by different drugs were slightly modified based on previous studies (Li et al., Yancey et al., and Jehle et al; Liu st al and Lilis at al 2008). Detail steps are described below. Use 3 μM CFSE Cell Trace (Thermofisher, USA) to mark RAW264.7 macrophage cell line for 20 minutes under 37° C., then wash with PBS. Culture cells for 24 hours, then use the 1.5 mM H2O2 following the aforementioned steps to induce RAW264.7 macrophage cell to differentiate into apoptotic cells. […] Lastly, use flow cytometry (FACS BD ARIA II, BD Bioscience, USA) to examine fluorescence performance, if both PE-MERTK and CFSE appear positive, the cell will be identified as the M2C macrophages that efferocytosed the aforementioned apoptotic cells.
Results of fluorescence expression of stained apoptotic cells, macrophages and efferocytotic macrophages detected by flow cytometry are shown in FIG. 20. Apoptotic cells induced by H2O2 (1.5 mM) and express FITC fluorescence after FITC-CFSE staining are distributed in P4 region. Differentiated M2 macrophage expresses MERTK are detected by the expressed PE fluorescence after PE-MERTK staining, which is distributed in P5 region. […]

[7] = baicalin 50 μM, 24/48/72 hours, versus groups without baicalin, FIG. 10
[8] = versus IL-4 treated group, same treatment duration, p<0.05, FIG. 11

## O=C(O)[C@H]1O[C@@H](Oc2cc3oc(-c4ccccc4)cc(=O)c3c(O)c2O)[C@H](O)[C@@H](O)[C@@H]1O [Baicalin]
Murine M2 macrophage [1]
  percentage of cells expressing CD86 and CD206: lower than both comparison 1 and 2
Murine M2 macrophage [2]
  morphology of macrophages: ellipse instead of spindle shaped
[3]; baicalin 50 μM, 24/48/72 hours, versus M1, M2 macrophages without baicalin treatment (LPS, control), FIG. 9
  VEGF-A mRNA expression level: higher
[3]; [7]
  VEGFR-1 mRNA expression level: higher
  VEGFR-2 mRNA expression level: higher
[3]; [8]
  VEGF-A mRNA expression level: significantly higher
  VEGFR1 mRNA expression level: significantly higher
  VEGFR2 mRNA expression level: significantly higher
[3]; versus M1, M2 macrophages without baicalin treatment, p<0.05, FIG. 12
  PD-L1 mRNA expression level: higher
Murine M2 macrophage [4]
  average MERTK expression level in one single cell (mean fluorescence intensity): two times higher
Murine M2 macrophage [5]; FITC-Latex beads 24 hours, FIG. 16
  percentage of cells that phagocytosed the beads: approximately 30%
Murine M2 macrophage [5]; FITC-Latex beads 24 hours, PE-anti-MERTK, FIG. 17
  percentage of cells that phagocytosed beads and also express MERTK protein: 30%
Murine M2 macrophage [5]; fluorescence microscope, PE-MERTK, FIG. 18
  MERTK fluorescence distribution of cells after phagocytosing FITC-Latex beads: express MERTK on cell membrane
[6]; cells expressing CFSE
  mean fluorescence intensity of MERTK of single M2 macrophage: significantly higher than other drug treated groups and control group
[6]; cells expressing MERTK
  mean fluorescence intensity of CFSE of single M2 macrophage: significantly higher than other drug treated groups and control group
